Source: US4889935A, “Aminoguanidine derivatives” (American Home Products Corporation, priority 1989, dated 1989)

Tests used:
[1] = test system: carrageenan paw edema (acute inflammatory response) in Sprague-Dawley rats; test: rat carrageenan paw edema assay; assay type: in vivo, rat (Sprague-Dawley); conditions: for % Inhibition (peroral) of paw edema: 1 hour before carrageenan, 3 hours
Procedure: The compounds of the invention are further tested in the rat carrageenan paw edema assay to determine their ability to inhibit the acute inflammatory response. This assay is carried out as follows: 140-180 gm mal Sprague-Dawley rats, in groups of 6 animals are injected subcutaneously in the right paw with 0.1 ml of 1% carrageenan at zero time. Mercury plethysmographic readings (ml) of the paw are made at zero time and 3 hours later. Test compounds are suspended or dissolved in 0.5% methycellulose and given perorally 1 hour prior to carrageenan administration. The increase in paw volume (edema in ml.) produced by the carrageenan is measured. […] Unpaired Student's t-test is used to determine statistical significance.

[2] = test system: adjuvant-induced polyarthritis in Sprague-Dawley rats; test: adjuvant arthritis assay; assay type: in vivo, rat (Sprague-Dawley); conditions: oral dose 30 mg/kg
[3] = test system: LTB4 synthesis by rat polymorphonuclear leukocytes (lipoxygenase); test: inhibition of LTB4 synthesis by rat glycogen-elicited polymorphonuclear leukocytes (PMN); assay type: cell-based, rat (female Wistar)
Procedure: This is especially true with respect to 5,12-diHETE, which is also denoted as LTB4 [See Ford-Hitchinson, J. Roy. Soc. Med., 74, 831 (1981)]. The assay of this Example measures the ability of the compounds of the invention to inhibit the synthesis of LTB4 by rat glycogenelicited polymorphonuclear leukocytes (PMN).
The assay is carried out as follows:
Rat polymorphonuclear leukocytes (PMNs) are obtained from female Wistar rats (150-200 g) which receive an injection of 6% glycogen (10 ml i.p.). Rats are sacrificed 18-24 hours post injection by CO2 asphyxiation and the elicited cells are harvested by peritoneal lavage using physiological saline (0.9% NaCl). The exudate is centrifuged at 400 x g for 10 minutes. The supernatant fluid is discarded and the cell pellet is resuspended to a concentration of 2.0×10^7 cells/ml in HBSS containing Ca^++ and Mg^++ and 10 μM L-cysteine.
To 1 ml aliquots of cell suspension, test drugs or vehicle are added, then preincubated at 37° C. for 10 minutes. […] Supernatants are then analyzed by HPLC analysis on a 15 cm×4.6 mm ID Supelcosil LC-18 (Supelco)(3M) column, using a two solvent system at a flow rate of 1.4 ml total flow as follows: […]
Injections: 150 μl of each supernatant is injected directly onto column and ^3 H arachidonic acid metabolites are monitored using an on-line radioactivity detector (Ramona, IN/US, Fairfield, NJ). […]

CC(=NNC(=N)N)c1cccc(OCc2ccc3ccccc3c2)c1 [Example 1, 2-[1-[3-(2-Naphthalenylmethoxy)phenyl]ethylidene]-hydrazinecarboximidamide,0.1 hydrate]
% Inhibition (peroral) of paw edema ([1]; at 50 mg/kg peroral): 42% | % Change of Right Paw Edema at Day 4 ([2]; day 4): 50% | % Change of Left Paw Edema at Day 16 ([2]; day 16): 31%

COc1ccc2c(c1)c(CC(=O)O)c(C)n2C(=O)c1ccc(Cl)cc1 [Indomethacin, reference compound]
ED50 ([1]; Rattus norvegicus, po, 3 h, read-out: Oral ED50 (95% C.L.) mg/kg): 3.7 mg/kg

CC(=NNC(=N)N)c1cccc(OCc2ccc3ccccc3n2)c1 [Example 2, 2-[1-[3-(2-Quinolinylmethoxy)phenyl]ethylidene]hydrazinecarboximidamide]
>50% Inhibitory at 50 μm (LTB4 synthesis) [3]: + (those compounds having an inhibition of >50%) | % Inhibition (peroral) of paw edema ([1]; at 100 mg/kg peroral): 43%
